# In patent US20210145801A1, “THERAPY FOR PROTEIN MISFOLDING DISEASE” (WREN THERAPEUTICS LIMITED, priority 2018, published 2021):
# “Also recorded” adds a separate entry of the source.
# Key:
# Aβ42 = molecular target: T1, Aβ42 (Homo sapiens, UniProt P05067); assay: Aβ42 aggregation kinetics in human CSF; type: biochemical; details: 66% CSF; 1.25 and 5-fold excess
# T1 construct: made in house; host or cells: E. coli BL21 Gold (DE3)
# Description: For the experiments of Aβ42 aggregation kinetics in human CSF, monomeric solutions of 3 μM Aβ42 were prepared similar to above with the only exception that the buffer was 20 mM Hepes, pH 8 supplemented with 1 mM CaCl2 at 150 mM NaCl. The obtained monomer was diluted with the […] in order to reach 66% final concentration of CSF, in which the effect of CSF is close to maximum. Aβ42 aggregation kinetics were performed in the absence and the presence of 1.25 and 5-fold excess of Netoglitazone.
# [1] = test system: ROS production in AD worms; assay: ROS production (ROS-Glo H2O2 assay) in AD worms; type: in vivo, C. elegans; details: 5 μM administered at L4; D5 of adulthood
# Description: ROS-Glo™ H2O2 cell kit assay was used (Promega, Fitchburg, Wis., USA) and adapted for C. elegans studies. The ROS-Glo™ H2O2 Assay is a bioluminescent assay that measures the level of H2O2, a reactive oxygen species (ROS), directly in cell culture or tissue or in defined enzyme reactions. A derivatized luciferin substrate is incubated with sample and reacts directly with H2O2 to generate a luciferin precursor. Worms treated with 5 μM Netoglitazone in 1% DMSO or 1% DMSO only were washed using M9 buffer out the NGM plates. The buffer was then changed 3 times to remove the excess bacteria. Worm pellets were then divided in three wells and 80 μl of worm pellet (around 200 worms/well) was incubated for 6 h at RT with 20 μl of a ROS Substrate Solution (Promega, Fitchburg, Wis., USA); mild shaking at 300 rpm was used to avoid worm sedimentation; afterwards, worms were incubated for ca. 20 min with 100 μl of the detection solution; luminescence was then measured with a Clariostar (BMG Labtech, Aylesbury, UK).
# Aβ plaques = assay: Aβ plaque quantification in APPPS1 transgenic mice; type: in vivo; details: 75 mg/kg/day once daily for 90 days from 60 days of age
# Description: APPPS1 transgenic mice were used in the study, which co-express the Swedish mutation […] and PS1 mutation L166P under the control of the neuron-specific Thy-1 promoter on a C57BL/6 genetic background. APPPS1 mice were habituated ahead of the study to voluntarily drink a condensed milk formulation from a pipette. The condensed milk used in the study is commercially available (Migros) and contains milk, sugar, stabilizer E339. Body weight was measured ahead of commencing the study to calculate the dose of Netoglitazone for each mouse and to calculate the total blood volume. Mice aged 60 days old were then dosed once daily with a pipette for 90 days. The pipette contained 40-80 μL consisting of either condensed milk (2 ml/kg/day) only (placebo cohort) or condensed milk (2 ml/kg/day) and Netoglitazone (75 mg/kg/day). Blood was collected via retro-orbital sampling to monitor the concentration of Netoglitazone after 7 days and 28 days. Visual monitoring of the mice and measurement of body weight were conducted daily and every other week respectively. At the end of the experiment (i.e. after 90 days of once daily treatment such that mice were 150 days old), mice were euthanized and their brains were analyzed as outlined below. […]
# The image files were analysed using custom-coded software. […]
# T1 sequence (P05067 671-713): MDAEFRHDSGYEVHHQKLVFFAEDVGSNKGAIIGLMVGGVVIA
smiles,measurement,setting,value
O=C1NC(=O)C(Cc2ccc3cc(OCc4ccccc4F)ccc3c2)S1 (stereo not drawn) [Netoglitazone],Delay of Aβ42 aggregation kinetics in 66% human CSF,Aβ42,significantly delayed the aggregation kinetics in a concentration-dependent manner
same,ROS production / levels of oxidative species in AD worms,[1],significantly decreased the levels of oxidative species; also recorded: restores the ROS production in AD worms to normal levels
same,Relative number of Aβ plaques in brain vs placebo,Aβ plaques,decrease in the relative number of Aβ plaques
